Measurements taken from patent US8735415B2, “Acid addition salts of (3,5-Bis trifluoromethyl)-N-[4-methyl-3-(4-pyridin-3yl-pyrimidin-2ylamino)-phenyl]-benzamide” (Natco Pharma Limited, priority 2004, dated 2014).
Converted amounts (≈) assume the structure as drawn.

Columns and labels:
[1] = Solubility by the shake flask method; settings: for Solubility (mg/ml): Medium: Water
Procedure: General conditions: Room temperature (25° C.), stirring speed: 200 RPM, Analytical method: UV

[2] = Stability under high humidity conditions (water content by Karl-Fischer method); assay type: physicochemical; settings: for Final moisture content - After 48 hours at 25° C. at humidity of 60%: humidity 60%; for Final moisture content - After 48 hours at 25° C. at humidity of 60% / Final moisture content - After 48 hours at 40° C. at humidity of 75% / Initial moisture content (%): Karl-Fischer; for Final moisture content - After 48 hours at 40° C. at humidity of 75%: humidity 75%; for Initial moisture content (%): before storage; for Hygroscopicity (conclusion in words): conclusion from Table 1
[3] = test system: T315I cell line, chronic myelogenous leukemia (CML) mutant; test: Activity in cell culture, T315I cell proliferation; assay type: cell-based; settings: for IC50: 0.625×10^5 cells/ml, 10 μM to 0.156 μM
[4] = Bioavailability study in mice; assay type: in vivo
[5] = test system: K562 cell line, chronic myelogenous leukemia (CML); test: Activity in cell culture, K562 cell proliferation; assay type: cell-based; settings: for IC50: K562, 0.312×10^5 cells/ml, 72 Hrs, 10 μM to 0.156 μM; for Potency in inhibiting cell proliferation compared with Imatinib: K562
[6] = Flow properties, angle of repose; assay type: physicochemical
Mice = test: Maximum tolerated dose (MTD) for 14 days; assay type: in vivo; settings: for MTD (mg/kg, po): Mice, 14 days
From the text: Maximum Tolerated Dose—Non-Toxic Nature

[7] = 0.1N HCl, 25 °C, simulated gastric fluid, thermodynamic from solid

## Cc1ccc(NC(=O)c2cc(C(F)(F)F)cc(C(F)(F)F)c2)cc1Nc1nccc(-c2cccnc2)n1.Cl [(3,5-Bis trifluoromethyl)-N-[4-methyl-3-(4-pyridin-3-yl-pyrimidin-2-ylamino)-phenyl]-benzamide hydrochloride]
[1]; Medium: 0.1N HCl, 25° C., 200 RPM, UV
  solubility: 13.4 µg/mL
[1]; 25° C., 200 RPM, UV
  Solubility (mg/ml): Almost no
[2]
  Final moisture content - After 48 hours at 25° C. at humidity of 60%: 0.7%
  Final moisture content - After 48 hours at 40° C. at humidity of 75%: 0.7%
  Initial moisture content (%): 0.6%
  Hygroscopicity (conclusion in words): non-hygroscopic

## Cc1ccc(NC(=O)c2cc(C(F)(F)F)cc(C(F)(F)F)c2)cc1Nc1nccc(-c2cccnc2)n1 [AN-019, (3,5-Bistrifluoromethyl)-N-[4-methyl-3-(4-pyridin-3-yl-pyrimidin-2-ylamino)-phenyl]-benzamide]
[1]; [7]
  solubility: 1.3 µg/mL (≈ 2.51 µM)
[1]; 25° C., 200 RPM, UV
  Solubility (mg/ml): Almost no
[3]
  Potency in inhibiting cell proliferation compared with Imatinib: more potent than Imatinib
[3]; 72 h
  IC50: 99.3 nM
[4]
  AUC: 611.46 ng·h/mL
[4]; mouse, in vivo
  Cmax: 93.7 ng/mL
  Tmax: 6 h
[5]; Homo sapiens, K562, 72 h
  IC50: 206 nM
[5]
  Potency in inhibiting cell proliferation compared with Imatinib: more potent than Imatinib
[6]
  Angle of Repose (degrees °): 41.57 degrees °
Mice
  MTD (mg/kg, po): 500.0 mg/kg, po

## CS(=O)(=O)O.Cc1ccc(NC(=O)c2cc(C(F)(F)F)cc(C(F)(F)F)c2)cc1Nc1nccc(-c2cccnc2)n1 [(3,5-Bis trifluoromethyl)-N-[4-methyl-3-(4-pyridin-3-yl-pyrimidin-2-ylamino)-phenyl]-benzamide methane sulfonate]
[2]
  Final moisture content - After 48 hours at 25° C. at humidity of 60%: 0.7%
  Final moisture content - After 48 hours at 40° C. at humidity of 75%: 0.7%
  Initial moisture content (%): 0.6%
  Hygroscopicity (conclusion in words): non-hygroscopic

## Cc1ccc(NC(=O)c2cc(C(F)(F)F)cc(C(F)(F)F)c2)cc1Nc1nccc(-c2cccnc2)n1.Cc1ccc(S(=O)(=O)O)cc1 [AN-019T, (3,5-Bis trifluoromethyl)-N-[4-methyl-3-(4-pyridin-3-yl-pyrimidin-2-ylamino)-phenyl]-benzamide 4-toluene sulfonate monohydrate]
[1]; [7]
  solubility: 40.2 µg/mL
[1]; conclusion from Table 2
  Solubility compared with the other salts: improved solubility properties among other salts investigated
[1]; water, 25 °C, thermodynamic from solid
  solubility: 7.8 µg/mL
[3]
  Potency in inhibiting cell proliferation compared with Imatinib: more potent than Imatinib
[3]; 72 Hrs, monohydrate
  IC50: 109 nM
[2]
  Final moisture content - After 48 hours at 25° C. at humidity of 60%: 2.7%
  Final moisture content - After 48 hours at 40° C. at humidity of 75%: 2.8%
  Initial moisture content (%): 2.7%
  Hygroscopicity (conclusion in words): non-hygroscopic
[5]
  Potency in inhibiting cell proliferation compared with Imatinib: more potent than Imatinib
[5]; monohydrate
  IC50: 265 nM
[6]
  Angle of Repose (degrees °): 30.74 degrees °
[6]; conclusion from Table 4
  Flow properties compared with the base: a lower angle of repose and better flow properties when compared with corresponding base
Mice
  MTD (mg/kg, po): 1000.0 mg/kg, po
Mice; conclusion from Table 3, mice
  Toxicity compared with the base: substantially less toxic than the corresponding base
